Measurements: patent US10730872B2, “Pesticidally active heterocyclic derivatives with sulphur containing sustitutents” (SYNGENTA PARTICIPATIONS AG, priority 2015, dated 2020)

Experiments:
Format in all cases: in vivo
Myzus persicae [1] = test: Myzus persicae (Green Peach Aphid). Intrinsic Activity; conditions: 120 h, test rate of 12 ppm, mixed with sucrose solution, Parafilm, 5 days after infestation
Method: Test compounds prepared from 10,000 ppm DMSO stock solutions were applied by pipette into 24-well microtiter plates and mixed with sucrose solution. The plates were closed with a stretched Parafilm. A plastic stencil with 24 holes was placed onto the plate and infested pea seedlings were placed directly on the Parafilm. The infested plate was closed with a gel blotting paper and another plastic stencil and then turned upside down. The samples were assessed for mortality 5 days after infestation.

Diabrotica balteata = Diabrotica balteata (Corn Root Worm); conditions: 96 h, application rate of 200 ppm, sprayed maize sprouts, L2 larvae, 4 days after infestation, read-out: effect in at least one of the two categories (mortality or growth inhibition)
Method: Maize sprouts placed onto an agar layer in 24-well microtiter plates were treated with aqueous test solutions prepared from 10,000 ppm DMSO stock solutions by spraying. After drying, the plates were infested with L2 larvae (6 to 10 per well). The samples were assessed for mortality and growth inhibition in comparison to untreated samples 4 days after infestation.

Myzus persicae [2] = test: Myzus persicae (Green Peach Aphid): Feeding/Contact Activity; conditions: foliar, 144 h, application rate of 200 ppm, sprayed sunflower leaf discs, aphid population of mixed ages, 6 days after infestation
Method: Sunflower leaf discs were placed onto agar in a 24-well microtiter plate and sprayed with aqueous test solutions prepared from 10,000 ppm DMSO stock solutions. After drying, the leaf discs were infested with an aphid population of mixed ages. The samples were assessed for mortality 6 days after infestation.

Plutella xylostella = Plutella xylostella (Diamond Back Moth); conditions: 120 h, application rate of 200 ppm, artificial diet, L2 larvae, 5 days after infestation, read-out: effect in at least one of the two categories (mortality or growth inhibition)
Method: 24-well microtiter plates with artificial diet were treated with aqueous test solutions prepared from 10,000 ppm DMSO stock solutions by pipetting. After drying, the plates were infested with L2 larvae (10 to 15 per well). The samples were assessed for mortality and growth inhibition in comparison to untreated samples 5 days after infestation.

Spodoptera littoralis = Spodoptera littoralis (Egyptian Cotton Leaf Worm), sprayed cotton leaf discs; conditions: foliar, 72 h, application rate of 200 ppm, L1 larvae, 3 days after infestation
Summary of the method: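 Cotton leaf discs on agar sprayed with aqueous dilutions of 10,000 ppm DMSO stocks, dried, then infested with five L1 larvae. Mortality, anti-feeding and growth inhibition scored against untreated discs 3 days after infestation. Control recorded when any one category exceeds the untreated sample.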

CCSc1cc(NC(=O)C2CC2)cnc1-c1nc2cc(C(F)(F)F)n(CC)c(=O)c2n1C [Compound A59, N-[6-[5-ethyl-3-methyl-4-oxo-6-(trifluoromethyl)imidazo[4,5-c]pyridin-2-yl]-5-ethylsulfanyl-3-pyridyl]cyclopropanecarboxamide]
≥ 80%: mortality at 12 ppm (Myzus persicae [1]) | effect mortality or growth inhibition at 200 ppm (Diabrotica balteata) | mortality at 200 ppm (Myzus persicae [2]) | percent effect (mortality or growth inhibition) at 200 ppm (Plutella xylostella) | percent control (mortality, anti-feeding effect or growth inhibition) at 200 ppm (Spodoptera littoralis)
